Patent US20250230193A1, “CYCLIC COMPOUND HAVING SELECTIVE KRAS INHIBITORY EFFECT ON HRAS AND NRAS” (CHUGAI SEIYAKU KABUSHIKI KAISHA, priority 2022, published 2025)
Where a SMILES comes first, the peptide text is derived from it. Bridges are numbered along the chain shown (N, C = ends). [ ]: non-standard residue; d: D form. The star is where a group is joined. hPhe(3-Cl-4-CF3) = N[C@@H](CCc1ccc(C(F)(F)F)c(Cl)c1)C(=O)O; NPrPhe(4-CF3) = CCCN[C@@H](Cc1ccc(C(F)(F)F)cc1)C(=O)O; NMeGly(cPent) = CN[C@H](C(=O)O)C1CCCC1; NEtLeu = CCN[C@@H](CC(C)C)C(=O)O; NMeD = CN[C@@H](CC(=O)O)C(=O)O; NMeL = CN[C@@H](CC(C)C)C(=O)O; NMeNva = CCC[C@H](NC)C(=O)O; Morpholide = C1CN(*)CCO1; Piperidide = C1CCN(*)CC1; Ac4c = NC1(C(=O)O)CCC1; NPrGly = CCCNCC(=O)O; Sar = CNCC(=O)O

Tests used:
[1] = biological target: GDP-bound NRAS wild-type protein (Homo sapiens, UniProt P01111); test: Binding to NRAS by surface plasmon resonance (SPR), Single Cycle Kinetics; details: KD ratio, GDP-bound NRAS wild-type vs GDP-bound KRAS wild-type, SPR
Chain of GDP-bound NRAS wild-type protein (P01111 whole entry): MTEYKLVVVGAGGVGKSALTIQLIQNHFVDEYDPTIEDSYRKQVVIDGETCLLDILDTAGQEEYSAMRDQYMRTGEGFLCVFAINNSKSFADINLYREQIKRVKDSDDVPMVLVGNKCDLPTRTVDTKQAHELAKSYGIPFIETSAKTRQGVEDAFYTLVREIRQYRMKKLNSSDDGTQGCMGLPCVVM

[2] = biological target: GDP-bound HRAS wild-type protein (Homo sapiens, UniProt P01112); test: Binding to HRAS by surface plasmon resonance (SPR), Single Cycle Kinetics; details: KD ratio, GDP-bound HRAS wild-type vs GDP-bound KRAS wild-type, SPR
Chain of GDP-bound HRAS wild-type protein (P01112 whole entry): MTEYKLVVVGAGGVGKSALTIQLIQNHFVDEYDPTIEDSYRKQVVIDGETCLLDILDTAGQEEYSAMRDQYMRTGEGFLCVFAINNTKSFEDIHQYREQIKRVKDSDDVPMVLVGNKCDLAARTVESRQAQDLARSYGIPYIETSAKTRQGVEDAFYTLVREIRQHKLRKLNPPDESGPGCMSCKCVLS

SMILES: CCCN1C(=O)CN(C)C(=O)CN(C)C(=O)[C@H]([C@@H](C)CC)NC(=O)[C@H](CC(C)C)N(C)C(=O)C[C@@H](C(=O)N2CCCCC2)N(C)C(=O)[C@H](C2CCCC2)N(C)C(=O)C2(CCC2)NC(=O)[C@@H]2CCCN2C(=O)[C@H](CCc2ccc(C(F)(F)F)c(Cl)c2)NC(=O)CN(C)C(=O)[C@@H]1Cc1ccc(C(F)(F)F)cc1 [PP1930] ([NMeL]I[Sar][Sar][NPrPhe(4-CF3)][Sar][hPhe(3-Cl-4-CF3)]P[Ac4c][NMeGly(cPent)][NMeD]-Piperidide; lactam N-11)
- NRAS/KRAS (ratio of KD value for NRAS to KD value for KRAS) [1]: B (a compound having 3 or more and less than 10 is denoted as B)
- HRAS/KRAS (ratio of KD value for HRAS to KD value for KRAS) [2]: C (A compound having a KD ratio of 0.1 or more and less than 3 is denoted as C)

SMILES: CCO[C@@H]1C[C@H]2C(=O)NC3(CC(C)(C)C3)C(=O)N(C)[C@@H](C3CCCC3)C(=O)N(C)[C@H](C(=O)N(C)C)CC(=O)N(C)[C@@H](CC(C)C)C(=O)N[C@@H]([C@@H](C)CC)C(=O)N(C)CC(=O)N(C)[C@H]3C/C=C\CCN(C3=O)[C@@H](Cc3ccc(C(F)(F)F)cc3)C(=O)N(C)CC(=O)N[C@@H](CCc3ccc(C(F)(F)F)c(F)c3)C(=O)N2C1 [PP1931]
- NRAS/KRAS (ratio of KD value for NRAS to KD value for KRAS) [1]: A (a compound having 10 or more and less than 20 is denoted as A)
- HRAS/KRAS (ratio of KD value for HRAS to KD value for KRAS) [2]: B (a compound having 3 or more and less than 10 is denoted as B)

SMILES: CCC[C@H]1C(=O)N[C@@H]([C@@H](C)CC)C(=O)N(C)CC(=O)N(C)[C@H]2C/C=C\CCN(C2=O)[C@@H](Cc2ccc(C(F)(F)F)cc2)C(=O)N(C)CC(=O)N[C@@H](CCc2ccc(Cl)c(Cl)c2)C(=O)N2C[C@H](OCC)C[C@H]2C(=O)NC2(CC(C)(C)C2)C(=O)N(C)[C@@H](C2CCCC2)C(=O)N(C)[C@H](C(=O)N(C)C)CC(=O)N1C [PP1932]
- NRAS/KRAS (ratio of KD value for NRAS to KD value for KRAS) [1]: A (a compound having 10 or more and less than 20 is denoted as A)
- HRAS/KRAS (ratio of KD value for HRAS to KD value for KRAS) [2]: A (a compound having 10 or more and less than 20 is denoted as A)

SMILES: CCC[C@H]1C(=O)N[C@@H]([C@@H](C)CC)C(=O)N(C)CC(=O)N(C)[C@H]2C/C=C\CCN(C2=O)[C@@H](Cc2ccc(C(F)(F)F)cc2)C(=O)N(C)CC(=O)N[C@@H](CCc2cc(F)c(C(F)(F)F)c(F)c2)C(=O)N(C)[C@@H](C)C(=O)NC2(CC(C)(C)C2)C(=O)N(C)[C@@H](C2CCCC2)C(=O)N(C)[C@H](C(=O)N(C)C)CC(=O)N1C [PP1934]
- NRAS/KRAS (ratio of KD value for NRAS to KD value for KRAS) [1]: A (a compound having 10 or more and less than 20 is denoted as A)
- HRAS/KRAS (ratio of KD value for HRAS to KD value for KRAS) [2]: A (a compound having 10 or more and less than 20 is denoted as A)

SMILES: CC[C@H](C)[C@@H]1NC(=O)[C@H](CC)N(C)C(=O)C[C@@H](C(=O)N(C)C)N(C)C(=O)[C@H](C2CCCC2)N(C)C(=O)C2(CC(C)(C)C2)NC(=O)[C@H](CC)N(C)C(=O)[C@H](CCc2cc(F)c(C(F)(F)F)c(F)c2)NC(=O)CN(C)C(=O)[C@H](Cc2ccc(C(F)(F)F)cc2)N2CC/C=C\C[C@@H](C2=O)N(C)C(=O)CN(C)C1=O [PP1935]
- NRAS/KRAS (ratio of KD value for NRAS to KD value for KRAS) [1]: A (a compound having 10 or more and less than 20 is denoted as A)
- HRAS/KRAS (ratio of KD value for HRAS to KD value for KRAS) [2]: A (a compound having 10 or more and less than 20 is denoted as A)

SMILES: CCC[C@H]1C(=O)N[C@@H]([C@@H](C)CC)C(=O)N(C)CC(=O)N(C)[C@H]2C/C=C\CCN(C2=O)[C@@H](Cc2ccc(C(F)(F)F)cc2)C(=O)N(C)CC(=O)N[C@@H](CCc2cc(F)c(C(F)(F)F)c(F)c2)C(=O)N(C)[C@@H](COC)C(=O)NC2(CC(C)(C)C2)C(=O)N(C)[C@@H](C2CCCC2)C(=O)N(C)[C@H](C(=O)N(C)C)CC(=O)N1C [PP1936]
- NRAS/KRAS (ratio of KD value for NRAS to KD value for KRAS) [1]: AA (a compound having 20 or more is denoted as AA)
- HRAS/KRAS (ratio of KD value for HRAS to KD value for KRAS) [2]: A (a compound having 10 or more and less than 20 is denoted as A)

SMILES: CCO[C@@H]1C[C@H]2C(=O)NC(C)(C)C(=O)N(C)[C@@H](C3CCCC3)C(=O)N(C)[C@H](C(=O)N(C)CC)CC(=O)N(C)[C@@H](CC(C)C)C(=O)N[C@@H]([C@@H](C)CC)C(=O)N(C)CC(=O)N(C)[C@H]3C/C=C\CCN(C3=O)[C@@H](Cc3ccc(C(F)(F)F)cc3)C(=O)N(C)CC(=O)N[C@@H](CCc3cc(F)c(C(F)(F)F)c(F)c3)C(=O)N2C1 [PP1937]
- NRAS/KRAS (ratio of KD value for NRAS to KD value for KRAS) [1]: A (a compound having 10 or more and less than 20 is denoted as A)
- HRAS/KRAS (ratio of KD value for HRAS to KD value for KRAS) [2]: A (a compound having 10 or more and less than 20 is denoted as A)

SMILES: CCCN(C)C(=O)[C@@H]1CC(=O)N(C)[C@@H](CC(C)C)C(=O)N[C@@H]([C@@H](C)CC)C(=O)N(C)CC(=O)N(C)[C@H]2C/C=C\CCN(C2=O)[C@@H](Cc2ccc(C(F)(F)F)cc2)C(=O)N(C)CC(=O)N[C@@H](CCc2cc(F)c(C(F)(F)F)c(F)c2)C(=O)N2C[C@H](OCC)C[C@H]2C(=O)NC2(COC2)C(=O)N(C)[C@@H](C2CCCC2)C(=O)N1C [PP1938]
- NRAS/KRAS (ratio of KD value for NRAS to KD value for KRAS) [1]: AA (a compound having 20 or more is denoted as AA)
- HRAS/KRAS (ratio of KD value for HRAS to KD value for KRAS) [2]: A (a compound having 10 or more and less than 20 is denoted as A)

SMILES: CCC[C@H]1C(=O)N[C@@H]([C@@H](C)CC)C(=O)N(C)CC(=O)N(C)[C@H]2C/C=C\CCN(C2=O)[C@@H](Cc2ccc(C(F)(F)F)cc2)C(=O)N(C)CC(=O)N[C@@H](CCc2cc(F)c(C(F)(F)F)c(F)c2)C(=O)N2C[C@H](OCC)C[C@H]2C(=O)NC2(CC(C)(C)C2)C(=O)N(C)[C@@H]([C@@H](C)CC)C(=O)N(C)[C@H](C(=O)N(C)C)CC(=O)N1C [PP1941]
- NRAS/KRAS (ratio of KD value for NRAS to KD value for KRAS) [1]: A (a compound having 10 or more and less than 20 is denoted as A)
- HRAS/KRAS (ratio of KD value for HRAS to KD value for KRAS) [2]: A (a compound having 10 or more and less than 20 is denoted as A)

SMILES: CCO[C@@H]1C[C@H]2C(=O)NC3(CC(C)(C)C3)C(=O)N(C)[C@@H](C3CCCCC3)C(=O)N(C)[C@H](C(=O)N(C)C)CC(=O)N(C)[C@@H](CC)C(=O)N[C@@H]([C@@H](C)CC)C(=O)N(C)CC(=O)N(C)[C@H]3C/C=C\CCN(C3=O)[C@@H](Cc3ccc(C(F)(F)F)cc3)C(=O)N(C)CC(=O)N[C@@H](CCc3cc(F)c(C(F)(F)F)c(F)c3)C(=O)N2C1 [PP1942]
- NRAS/KRAS (ratio of KD value for NRAS to KD value for KRAS) [1]: AA (a compound having 20 or more is denoted as AA)
- HRAS/KRAS (ratio of KD value for HRAS to KD value for KRAS) [2]: A (a compound having 10 or more and less than 20 is denoted as A)

SMILES: CCC[C@H]1C(=O)N[C@@H]([C@@H](C)CC)C(=O)N(C)CC(=O)N(C)[C@H]2C/C=C\CCN(C2=O)[C@@H](Cc2ccc(C(F)(F)F)cc2)C(=O)N(C)CC(=O)N[C@@H](CCc2cc(F)c(C(F)(F)F)c(F)c2)C(=O)N2C[C@H](OCC)C[C@H]2C(=O)NC2(CC(C)(C)C2)C(=O)N(C)[C@@H](C2CCCC2)C(=O)N(C)[C@H](C(=O)N2CCC2)CC(=O)N1C [PP1943]
- NRAS/KRAS (ratio of KD value for NRAS to KD value for KRAS) [1]: A (a compound having 10 or more and less than 20 is denoted as A)
- HRAS/KRAS (ratio of KD value for HRAS to KD value for KRAS) [2]: B (a compound having 3 or more and less than 10 is denoted as B)

SMILES: CCO[C@@H]1C[C@H]2C(=O)NC3(CC(C)(C)C3)C(=O)N(C)[C@@H](C3CCCC3)C(=O)N(C)[C@H](C(=O)N3CCCC3)CC(=O)N(C)[C@@H](CC)C(=O)N[C@@H]([C@@H](C)CC)C(=O)N(C)CC(=O)N(C)[C@H]3C/C=C\CCN(C3=O)[C@@H](Cc3ccc(C(F)(F)F)cc3)C(=O)N(C)CC(=O)N[C@@H](CCc3cc(F)c(C(F)(F)F)c(F)c3)C(=O)N2C1 [PP1944]
- NRAS/KRAS (ratio of KD value for NRAS to KD value for KRAS) [1]: A (a compound having 10 or more and less than 20 is denoted as A)
- HRAS/KRAS (ratio of KD value for HRAS to KD value for KRAS) [2]: A (a compound having 10 or more and less than 20 is denoted as A)

SMILES: CCO[C@@H]1C[C@H]2C(=O)NC3(CC(C)(C)C3)C(=O)N(C)[C@@H](C3CCCC3)C(=O)N(C)[C@H](C(=O)N3CCCCC3)CC(=O)N(C)[C@@H](CC)C(=O)N[C@@H]([C@@H](C)CC)C(=O)N(C)CC(=O)N(C)[C@H]3C/C=C\CCN(C3=O)[C@@H](Cc3ccc(C(F)(F)F)cc3)C(=O)N(C)CC(=O)N[C@@H](CCc3cc(F)c(C(F)(F)F)c(F)c3)C(=O)N2C1 [PP1945]
- NRAS/KRAS (ratio of KD value for NRAS to KD value for KRAS) [1]: AA (a compound having 20 or more is denoted as AA)
- HRAS/KRAS (ratio of KD value for HRAS to KD value for KRAS) [2]: A (a compound having 10 or more and less than 20 is denoted as A)

SMILES: CCCN1C(=O)CN(C)C(=O)CN(C)C(=O)[C@H]([C@@H](C)CC)NC(=O)[C@H](CC(C)C)N(CC)C(=O)C[C@@H](C(=O)N2CCOCC2)N(C)C(=O)[C@H](C2CCCC2)N(C)C(=O)C2(CCC2)NC(=O)[C@@H]2CCCN2C(=O)[C@H](CCc2ccc(C(F)(F)F)c(Cl)c2)NC(=O)CN(C)C(=O)[C@@H]1Cc1ccc(C(F)(F)F)cc1 [PP1946] ([NEtLeu]I[Sar][Sar][NPrPhe(4-CF3)][Sar][hPhe(3-Cl-4-CF3)]P[Ac4c][NMeGly(cPent)][NMeD]-Morpholide; lactam N-11)
- NRAS/KRAS (ratio of KD value for NRAS to KD value for KRAS) [1]: B (a compound having 3 or more and less than 10 is denoted as B)
- HRAS/KRAS (ratio of KD value for HRAS to KD value for KRAS) [2]: C (A compound having a KD ratio of 0.1 or more and less than 3 is denoted as C)

SMILES: CCC[C@H]1C(=O)N[C@@H]([C@@H](C)CC)C(=O)N(CCC)CC(=O)N(C)CC(=O)N(CCC)[C@@H](Cc2ccc(C(F)(F)F)cc2)C(=O)N(C)CC(=O)N[C@@H](CCc2ccc(C(F)(F)F)c(Cl)c2)C(=O)N2CCC[C@H]2C(=O)NC2(CCC2)C(=O)N(C)[C@@H](C2CCCC2)C(=O)N(C)[C@H](C(=O)N2CCOCC2)CC(=O)N1C [PP1947] ([NMeNva]I[NPrGly][Sar][NPrPhe(4-CF3)][Sar][hPhe(3-Cl-4-CF3)]P[Ac4c][NMeGly(cPent)][NMeD]-Morpholide; lactam N-11)
- NRAS/KRAS (ratio of KD value for NRAS to KD value for KRAS) [1]: B (a compound having 3 or more and less than 10 is denoted as B)
- HRAS/KRAS (ratio of KD value for HRAS to KD value for KRAS) [2]: B (a compound having 3 or more and less than 10 is denoted as B)
